Data on 15 molecules can be found in patent publication US8785457B2 (Cellzome Limited, priority 2009, dated 2014).

One assay concerns the target T1, mTOR (Homo sapiens, UniProt P42345).
T1 construct: endogenous in cells; host or cells: Jurkat, clone E6-1 (ATCC TIB-152) cell lysate
In words: mTOR kinobeads assay (competitive binding in Jurkat cell lysate, immunodetection). In short, it runs like this:
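IC50 derived from dose-response curves of mTOR captured on immobilized phenylmorpholin-chromen beads, detected by antibody dot blot with infrared fluorescence.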

A further assay concerns the target T2, PI3K delta (PI3 Kd) (Homo sapiens, UniProt O00329).
T2 construct: endogenous in cells; host or cells: Jurkat, clone E6-1 (ATCC TIB-152) cell lysate
Briefly: kinobeads assay, PI3K delta. It counts as binding. A digest of the protocol: (§1)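 Competitive binding in Jurkat cell lysate (5 mg/mL protein) against beads carrying an immobilized phenylmorpholin-chromen ligand, in DP buffer pH 7.4 with NP40, DTT and NaF. Bead-bound kinases were eluted and quantified by antibody dot blot with infrared detection, and IC50 was taken from dose-response curves of a 1:3 dilution series.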

For assay [1], the target named is T3, DNA-dependent protein kinase (DNA-PK) (Homo sapiens, UniProt P78527).
T3 construct: endogenous in cells; host or cells: Jurkat, clone E6-1 (ATCC TIB-152) cell lysate
Briefly: kinobeads assay, DNA-PK. It counts as binding. A digest of the protocol: as §1

A further assay has as its target T4, PI3Kalpha (PI3Ka) (Homo sapiens, UniProt P42336).
T4 construct: endogenous in cells; host or cells: cell lysate
In words: kinobeads assay, PI3Kalpha. The class given is binding. As to conditions: for Inhibition values (IC50) PI3Ka / IC50: kinobeads assay, Table 6; for IC50: read-out: Inhibition values (IC50) PI3Ka; for PI3Ka: Further Kinobeads Data. Here is the method:
(§2) The kinobeads assay was performed as a competitive binding assay in which test compounds were added directly into a cell lysate. Test compounds (at various concentrations) and the affinity matrix (beads with immobilized phenylmorpholin-chromen ligand) were added to cell lysate aliquots and allowed to bind to the proteins contained in the lysate sample. After the incubation time the beads with captured proteins were separated from the lysate. Bound proteins were then eluted and the presence of kinases was detected and quantified using a multiplexed immunodetection format. Dose response curves for individual kinases were generated and IC50 values calculated.
(§3) The effect of the compounds on the kinases PI3Kalpha (PI3Ka), PI3 Kbeta (PI3 Kb) and PI3 Kgamma (PI3 Kg) were tested in the kinobeads assay as described (WO-A 2009/098021).

The target of the next assay is T5, PI3 Kbeta (PI3 Kb) (Homo sapiens, UniProt P42338).
T5 construct: endogenous in cells; host or cells: cell lysate
T5 sequence (P42338 whole entry): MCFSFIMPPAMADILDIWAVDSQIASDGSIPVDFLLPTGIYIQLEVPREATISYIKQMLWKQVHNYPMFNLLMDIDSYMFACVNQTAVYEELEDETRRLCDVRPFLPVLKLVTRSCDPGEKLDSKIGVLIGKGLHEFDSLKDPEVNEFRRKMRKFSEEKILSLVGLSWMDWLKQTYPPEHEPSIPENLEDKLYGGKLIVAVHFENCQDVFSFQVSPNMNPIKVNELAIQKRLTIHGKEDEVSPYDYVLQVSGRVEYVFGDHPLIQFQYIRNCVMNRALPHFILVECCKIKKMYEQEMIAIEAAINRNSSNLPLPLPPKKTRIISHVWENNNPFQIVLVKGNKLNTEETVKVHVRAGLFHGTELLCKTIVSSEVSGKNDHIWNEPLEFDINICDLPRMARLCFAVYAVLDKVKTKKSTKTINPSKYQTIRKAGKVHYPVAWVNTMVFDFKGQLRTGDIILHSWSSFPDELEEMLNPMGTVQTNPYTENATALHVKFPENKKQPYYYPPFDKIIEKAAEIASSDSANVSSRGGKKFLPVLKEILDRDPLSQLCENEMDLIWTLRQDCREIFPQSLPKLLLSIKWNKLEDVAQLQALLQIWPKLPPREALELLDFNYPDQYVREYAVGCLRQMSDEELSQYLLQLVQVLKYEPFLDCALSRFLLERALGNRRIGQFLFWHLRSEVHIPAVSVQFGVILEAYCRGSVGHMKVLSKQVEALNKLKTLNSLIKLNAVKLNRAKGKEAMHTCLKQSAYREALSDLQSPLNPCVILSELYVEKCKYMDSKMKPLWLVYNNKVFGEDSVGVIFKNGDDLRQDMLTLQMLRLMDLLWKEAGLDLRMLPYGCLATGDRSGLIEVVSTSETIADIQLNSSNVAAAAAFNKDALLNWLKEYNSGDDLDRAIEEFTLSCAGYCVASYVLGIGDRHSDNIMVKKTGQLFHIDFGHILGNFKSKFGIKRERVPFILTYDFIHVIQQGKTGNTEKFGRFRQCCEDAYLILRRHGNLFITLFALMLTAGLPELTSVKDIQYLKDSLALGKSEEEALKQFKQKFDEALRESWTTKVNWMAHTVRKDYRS
T5 sequence (P27986 whole entry partner): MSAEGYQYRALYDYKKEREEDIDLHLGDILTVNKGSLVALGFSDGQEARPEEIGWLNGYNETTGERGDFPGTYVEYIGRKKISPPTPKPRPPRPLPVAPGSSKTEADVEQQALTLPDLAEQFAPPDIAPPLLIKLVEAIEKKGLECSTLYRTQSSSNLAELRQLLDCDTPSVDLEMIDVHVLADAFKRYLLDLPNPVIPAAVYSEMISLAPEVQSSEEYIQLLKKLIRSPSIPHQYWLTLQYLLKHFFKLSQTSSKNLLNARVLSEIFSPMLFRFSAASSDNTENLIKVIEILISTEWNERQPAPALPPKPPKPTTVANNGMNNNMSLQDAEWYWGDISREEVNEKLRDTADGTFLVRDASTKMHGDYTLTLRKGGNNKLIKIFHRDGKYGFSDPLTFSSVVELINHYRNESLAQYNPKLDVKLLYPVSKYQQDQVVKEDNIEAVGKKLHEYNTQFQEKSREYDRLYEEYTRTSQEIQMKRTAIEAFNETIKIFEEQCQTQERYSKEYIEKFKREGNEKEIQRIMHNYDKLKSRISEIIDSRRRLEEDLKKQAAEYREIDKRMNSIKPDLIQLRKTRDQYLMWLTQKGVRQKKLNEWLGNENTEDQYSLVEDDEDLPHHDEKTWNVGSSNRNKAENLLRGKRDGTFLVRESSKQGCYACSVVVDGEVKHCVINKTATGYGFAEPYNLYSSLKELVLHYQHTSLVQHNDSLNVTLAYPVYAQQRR
Briefly: kinobeads assay, PI3Kbeta. It counts as binding. Here is the method:
as §2, §3

A further assay deals with T6, PI3 Kgamma (PI3 Kg) (Homo sapiens, UniProt P48736).
T6 construct: endogenous in cells; host or cells: cell lysate
T6 sequence (P48736 whole entry): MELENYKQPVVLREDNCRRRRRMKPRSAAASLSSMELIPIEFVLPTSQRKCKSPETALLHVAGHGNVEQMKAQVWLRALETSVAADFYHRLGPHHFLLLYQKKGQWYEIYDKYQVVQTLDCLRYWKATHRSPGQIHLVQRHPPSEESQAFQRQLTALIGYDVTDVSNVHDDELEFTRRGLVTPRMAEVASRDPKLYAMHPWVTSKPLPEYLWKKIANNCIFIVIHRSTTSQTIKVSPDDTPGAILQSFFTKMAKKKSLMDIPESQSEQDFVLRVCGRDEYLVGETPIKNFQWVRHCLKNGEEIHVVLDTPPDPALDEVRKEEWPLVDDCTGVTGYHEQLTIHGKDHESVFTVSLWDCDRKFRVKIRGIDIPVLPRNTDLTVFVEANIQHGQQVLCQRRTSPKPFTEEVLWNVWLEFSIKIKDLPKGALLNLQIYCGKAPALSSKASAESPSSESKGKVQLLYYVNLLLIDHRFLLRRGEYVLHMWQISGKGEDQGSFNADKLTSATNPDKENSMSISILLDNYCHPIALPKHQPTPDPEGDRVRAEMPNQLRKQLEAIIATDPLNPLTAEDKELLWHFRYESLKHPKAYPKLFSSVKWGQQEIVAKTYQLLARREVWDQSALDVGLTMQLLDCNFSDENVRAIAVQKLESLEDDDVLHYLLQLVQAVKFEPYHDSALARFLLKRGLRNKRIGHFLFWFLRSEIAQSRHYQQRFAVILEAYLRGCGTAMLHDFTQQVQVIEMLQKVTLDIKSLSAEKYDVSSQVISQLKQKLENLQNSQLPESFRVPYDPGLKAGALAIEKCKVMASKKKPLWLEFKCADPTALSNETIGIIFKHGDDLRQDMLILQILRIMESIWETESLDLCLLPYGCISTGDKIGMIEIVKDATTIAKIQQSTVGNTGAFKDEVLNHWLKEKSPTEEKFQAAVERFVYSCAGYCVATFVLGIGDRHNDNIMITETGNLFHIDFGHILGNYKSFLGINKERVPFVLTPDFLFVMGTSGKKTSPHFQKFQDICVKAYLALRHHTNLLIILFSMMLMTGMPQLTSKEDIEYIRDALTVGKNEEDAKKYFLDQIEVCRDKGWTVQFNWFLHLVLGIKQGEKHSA
In words: kinobeads assay, PI3Kgamma. The class given is binding. As to the method:
as §2, §3

Where [2] appears, read: kinobeads assay, Table 6, read-out: Inhibition values (IC50) mTOR.
The mark [3] stands for this setting: kinobeads assay, Table 6, read-out: Inhibition values (IC50) PI3Kd.
[4] abbreviates: kinobeads assay, Table 6, read-out: Inhibition values (IC50) DNAPK.
Setting [5] is: kinobeads assay, Table 6, read-out: Inhibition values (IC50) PI3Kb.
Where [6] appears, read: kinobeads assay, Table 6, read-out: Inhibition values (IC50) PI3Kg.
The mark [7] stands for this setting: Further Kinobeads Data, read-out: mTor.
Where [8] appears, read: Further Kinobeads Data, read-out: PI3Kd.
The mark [9] stands for this setting: Further Kinobeads Data, read-out: DNAPK.
Setting [10] is: Further Kinobeads Data, read-out: PI3Kb.
[11] abbreviates: Further Kinobeads Data, read-out: PI3Kg.

The structures appear in SMILES notation. Read-outs that look alike come from different tables or passages of the source.

T4 sequence (P42336 whole entry): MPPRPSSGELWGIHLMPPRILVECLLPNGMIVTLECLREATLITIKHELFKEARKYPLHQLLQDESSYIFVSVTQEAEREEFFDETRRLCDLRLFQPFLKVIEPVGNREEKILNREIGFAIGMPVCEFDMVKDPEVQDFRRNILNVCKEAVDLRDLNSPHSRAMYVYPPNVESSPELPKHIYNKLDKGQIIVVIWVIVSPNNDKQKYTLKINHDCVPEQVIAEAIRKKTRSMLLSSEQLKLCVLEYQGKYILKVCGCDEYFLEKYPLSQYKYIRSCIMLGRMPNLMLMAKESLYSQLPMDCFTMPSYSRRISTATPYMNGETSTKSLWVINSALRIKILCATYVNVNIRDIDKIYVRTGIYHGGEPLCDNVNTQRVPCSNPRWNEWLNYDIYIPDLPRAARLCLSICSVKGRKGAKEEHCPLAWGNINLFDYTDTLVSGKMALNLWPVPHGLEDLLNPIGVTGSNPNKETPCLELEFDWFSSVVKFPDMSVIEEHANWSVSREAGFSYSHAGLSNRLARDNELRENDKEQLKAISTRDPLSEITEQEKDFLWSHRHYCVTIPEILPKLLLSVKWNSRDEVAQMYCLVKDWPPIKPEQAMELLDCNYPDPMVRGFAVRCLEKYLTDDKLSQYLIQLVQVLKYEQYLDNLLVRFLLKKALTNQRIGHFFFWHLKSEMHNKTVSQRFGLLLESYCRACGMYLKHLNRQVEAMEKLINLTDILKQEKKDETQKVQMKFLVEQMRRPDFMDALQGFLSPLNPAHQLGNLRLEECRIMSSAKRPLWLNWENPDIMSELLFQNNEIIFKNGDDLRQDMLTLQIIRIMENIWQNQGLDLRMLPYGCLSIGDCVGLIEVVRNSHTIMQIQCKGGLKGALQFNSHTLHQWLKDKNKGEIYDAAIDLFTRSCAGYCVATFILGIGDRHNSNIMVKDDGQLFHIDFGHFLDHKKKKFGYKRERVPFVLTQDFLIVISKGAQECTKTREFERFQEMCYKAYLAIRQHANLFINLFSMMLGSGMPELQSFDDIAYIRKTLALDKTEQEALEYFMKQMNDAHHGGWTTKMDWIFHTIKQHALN
T4 sequence (P27986 whole entry partner): as the sequence (P27986 whole entry partner) above
T2 sequence (O00329 whole entry): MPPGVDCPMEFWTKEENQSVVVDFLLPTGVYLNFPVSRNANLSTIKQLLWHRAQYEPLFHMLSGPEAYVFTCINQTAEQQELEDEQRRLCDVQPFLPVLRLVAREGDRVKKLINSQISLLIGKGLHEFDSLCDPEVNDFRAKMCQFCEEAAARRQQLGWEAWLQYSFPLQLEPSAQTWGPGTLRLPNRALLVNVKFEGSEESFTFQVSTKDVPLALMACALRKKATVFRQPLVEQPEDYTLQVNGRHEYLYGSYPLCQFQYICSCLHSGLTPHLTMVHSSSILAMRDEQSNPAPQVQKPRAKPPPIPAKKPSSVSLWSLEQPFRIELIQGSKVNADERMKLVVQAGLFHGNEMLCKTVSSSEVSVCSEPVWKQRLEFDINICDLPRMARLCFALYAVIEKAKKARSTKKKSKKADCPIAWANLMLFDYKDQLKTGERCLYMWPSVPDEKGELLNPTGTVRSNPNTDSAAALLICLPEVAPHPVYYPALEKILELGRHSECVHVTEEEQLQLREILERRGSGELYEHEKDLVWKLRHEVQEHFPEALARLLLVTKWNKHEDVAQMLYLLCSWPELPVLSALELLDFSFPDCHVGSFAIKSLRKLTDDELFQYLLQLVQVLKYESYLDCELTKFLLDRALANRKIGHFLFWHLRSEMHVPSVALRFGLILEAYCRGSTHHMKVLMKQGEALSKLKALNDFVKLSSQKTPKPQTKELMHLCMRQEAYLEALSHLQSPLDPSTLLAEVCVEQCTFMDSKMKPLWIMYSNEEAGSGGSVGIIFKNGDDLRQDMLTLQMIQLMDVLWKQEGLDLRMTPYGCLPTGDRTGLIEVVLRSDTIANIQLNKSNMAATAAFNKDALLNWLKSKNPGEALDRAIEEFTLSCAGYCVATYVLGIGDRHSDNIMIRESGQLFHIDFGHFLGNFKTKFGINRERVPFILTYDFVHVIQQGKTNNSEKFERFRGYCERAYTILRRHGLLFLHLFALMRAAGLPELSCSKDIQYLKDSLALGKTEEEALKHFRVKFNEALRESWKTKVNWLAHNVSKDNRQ
T2 sequence (P27986 whole entry partner): as the sequence (P27986 whole entry partner) above

With `CCNC(=O)Nc1ccc(-c2nc3c(c(N4CCOC[C@@H]4C)n2)CN(C(=O)C2CCN(C(C)=O)CC2)C3)cc1F` [Example 123, (S)-1-(4-(6-(1-acetylpiperidine-4-carbonyl)-4-(3-methylmorpholino)-6,7-dihydro-5H-pyrrolo[3,4-d]pyrimidin-2-yl)-2-fluorophenyl)-3-ethylurea], the IC50 at mTOR (setting [2]) is 0.1 to 1 µM; on PI3K delta (PI3 Kd) (setting [3]), > 10 µM; in assay [1] (setting [4]) it was > 10 µM; at PI3 Kbeta (PI3 Kb) (setting [5]) it was > 10 µM; at PI3 Kgamma (PI3 Kg) (setting [6]) it was > 10 µM. The “Inhibition values (IC50) PI3Ka” value at PI3Kalpha (PI3Ka) was “D (D >10 μM)”.
Regarding `CCOC(=O)N1Cc2nc(-c3ccc(NC(=O)NCCNC(C)=O)cc3)nc(N3CCOC[C@@H]3C)c2C1` [Example 124, (S)-ethyl 2-(4-(3-(2-acetamidoethyl)ureido)phenyl)-4-(3-methylmorpholino)-5H-pyrrolo[3,4-d]pyrimidine-6(7H)-carboxylate], the IC50 on mTOR (setting [2]) is 0.1 to 1 µM; at PI3K delta (PI3 Kd) (setting [3]), 1 to 10 µM; in assay [1] (setting [4]), > 10 µM; on PI3Kalpha (PI3Ka) it was 1 to 10 µM; at PI3 Kbeta (PI3 Kb) (setting [5]), > 10 µM; at PI3 Kgamma (PI3 Kg) (setting [6]) it was > 10 µM.
With `CCOC(=O)N1Cc2nc(-c3ccc(NC(=O)NCC(=O)NC)cc3)nc(N3CCOC[C@@H]3C)c2C1` [Example 125, (S)-ethyl 2-(4-(3-(2-(methylamino)-2-oxoethyl)ureido)phenyl)-4-(3-methylmorpholino)-5H-pyrrolo[3,4-d]pyrimidine-6(7H)-carboxylate], the IC50 on mTOR (setting [2]) is 0.1 to 1 µM; at PI3K delta (PI3 Kd) (setting [3]) it was 0.1 to 1 µM; in assay [1] (setting [4]), > 10 µM; on PI3 Kbeta (PI3 Kb) (setting [5]), 1 to 10 µM; on PI3 Kgamma (PI3 Kg) (setting [6]), 1 to 10 µM. Besides, on PI3Kalpha (PI3Ka), the “Inhibition values (IC50) PI3Ka” value is given as “B (B >0.1 μM < 1 μM)”.
Turning to `CCNC(=O)Nc1ccc(-c2nc3c(c(N4CCOC[C@@H]4C)n2)CN(C(=O)C2CCNCC2)C3)cc1F` [Example 126, (S)-1-ethyl-3-(2-fluoro-4-(4-(3-methylmorpholino)-6-(piperidine-4-carbonyl)-6,7-dihydro-5H-pyrrolo[3,4-d]pyrimidin-2-yl)phenyl)urea], the IC50 at mTOR (setting [2]) was 0.1 to 1 µM; at PI3K delta (PI3 Kd) (setting [3]), > 10 µM; in assay [1] (setting [4]) it was > 10 µM; on PI3 Kbeta (PI3 Kb) (setting [5]), 1 to 10 µM; at PI3 Kgamma (PI3 Kg) (setting [6]) it was > 10 µM. In addition, the “Inhibition values (IC50) PI3Ka” value at PI3Kalpha (PI3Ka) is “D (D >10 μM)”.
On to `C[C@H]1COCCN1c1nc(-c2ccc(NC(=O)NC3CC3)cc2)nc2c1CN(CC1CCNCC1)C2` [Example 130, (S)-1-cyclopropyl-3-(4-(4-(3-methylmorpholino)-6-(piperidin-4-ylmethyl)-6,7-dihydro-5H-pyrrolo[3,4-d]pyrimidin-2-yl)phenyl)urea], for which the IC50 at mTOR (setting [2]) was < 0.1 µM; at PI3K delta (PI3 Kd) (setting [3]), 1 to 10 µM; in assay [1] (setting [4]), > 10 µM; at PI3Kalpha (PI3Ka), 1 to 10 µM; on PI3 Kbeta (PI3 Kb) (setting [5]) it was 1 to 10 µM; at PI3 Kgamma (PI3 Kg) (setting [6]), > 10 µM.
For the molecule `C[C@H]1COCCN1c1nc(-c2ccc(NC(=O)NC3CC3)cc2)nc2c1CN(C(=O)CCN1CCCC1=O)C2` [Example 132, (S)-1-cyclopropyl-3-(4-(4-(3-methylmorpholino)-6-(3-(2-oxopyrrolidin-1-yl)propanoyl)-6,7-dihydro-5H-pyrrolo[3,4-d]pyrimidin-2-yl)phenyl)urea], the IC50 is < 0.1 µM at mTOR (setting [2]); 1 to 10 µM on PI3K delta (PI3 Kd) (setting [3]); > 10 µM in assay [1] (setting [4]); 1 to 10 µM at PI3Kalpha (PI3Ka); 1 to 10 µM on PI3 Kbeta (PI3 Kb) (setting [5]); > 10 µM on PI3 Kgamma (PI3 Kg) (setting [6]).
As for `CC(=O)NCCCC(=O)N1Cc2nc(-c3ccc(NC(=O)NC4CC4)cc3)nc(N3CCOC[C@@H]3C)c2C1` [Example 133, (S)—N-(4-(2-(4-(3-cyclopropylureido)phenyl)-4-(3-methylmorpholino)-5H-pyrrolo[3,4-d]pyrimidin-6(7H)-yl)-4-oxobutyl)acetamide], the IC50 at mTOR (setting [2]) is < 0.1 µM; at PI3K delta (PI3 Kd) (setting [3]), 1 to 10 µM; in assay [1] (setting [4]) it was > 10 µM; at PI3Kalpha (PI3Ka), 1 to 10 µM; on PI3 Kbeta (PI3 Kb) (setting [5]) it was 1 to 10 µM; on PI3 Kgamma (PI3 Kg) (setting [6]) it was > 10 µM.
With `C[C@H]1COCCN1c1nc(-c2ccc(NC(=O)NC3CC3)cc2)nc2c1CN(CCCC(=O)O)C2` [Example 134, (S)-4-(2-(4-(3-cyclopropylureido)phenyl)-4-(3-methylmorpholino)-5H-pyrrolo[3,4-d]pyrimidin-6(7H)-yl)butanoic acid], the IC50 at mTOR (setting [2]) is < 0.1 µM; on PI3K delta (PI3 Kd) (setting [3]) it was > 10 µM; in assay [1] (setting [4]) it was > 10 µM; on PI3Kalpha (PI3Ka), 1 to 10 µM; at PI3 Kbeta (PI3 Kb) (setting [5]), > 10 µM; on PI3 Kgamma (PI3 Kg) (setting [6]) it was > 10 µM.
`CC(=O)N(C)CCC(=O)N1Cc2nc(-c3ccc(NC(=O)NC4CC4)cc3)nc(N3CCOC[C@@H]3C)c2C1` [Example 135, (S)—N-(3-(2-(4-(3-cyclopropylureido)phenyl)-4-(3-methylmorpholino)-5H-pyrrolo[3,4-d]pyrimidin-6(7H)-yl)-3-oxopropyl)-N-methylacetamide]: the IC50 on mTOR (setting [2]) is < 0.1 µM; on PI3K delta (PI3 Kd) (setting [3]) it was 1 to 10 µM; in assay [1] (setting [4]), > 10 µM; at PI3Kalpha (PI3Ka) it was 1 to 10 µM; on PI3 Kbeta (PI3 Kb) (setting [5]) it was 1 to 10 µM; on PI3 Kgamma (PI3 Kg) (setting [6]) it was > 10 µM.
With `C[C@H]1COCCN1c1nc(-c2ccc(NC(=O)NC3CC3)cc2)nc2c1CN(C(=O)CCNC(N)=O)C2` [Example 136, (S)-1-cyclopropyl-3-(4-(4-(3-methylmorpholino)-6-(3-ureidopropanoyl)-6,7-dihydro-5H-pyrrolo[3,4-d]pyrimidin-2-yl)phenyl)urea], the IC50 at mTOR (setting [2]) was < 0.1 µM; on PI3K delta (PI3 Kd) (setting [3]), 1 to 10 µM; in assay [1] (setting [4]), > 10 µM; on PI3Kalpha (PI3Ka) it was 1 to 10 µM; on PI3 Kbeta (PI3 Kb) (setting [5]), 1 to 10 µM; on PI3 Kgamma (PI3 Kg) (setting [6]), > 10 µM.
With `CCNC(=O)Nc1c(F)cc(-c2nc3c(c(N4CCOC[C@@H]4C)n2)CN(C)C3)cc1F` [Example 139, (S)-1-(2,6-difluoro-4-(6-methyl-4-(3-methylmorpholino)-6,7-dihydro-5H-pyrrolo[3,4-d]pyrimidin-2-yl)phenyl)-3-ethylurea], the IC50 was 1 to 10 µM at mTOR (setting [7]); > 10 µM at PI3K delta (PI3 Kd) (setting [8]); > 10 µM in assay [1] (setting [9]); > 10 µM on PI3 Kbeta (PI3 Kb) (setting [10]); > 10 µM at PI3 Kgamma (PI3 Kg) (setting [11]). At PI3Kalpha (PI3Ka), the PI3Ka result is given as “D (D >10 μM)”.
Consider `CCNC(=O)Nc1ccc(-c2nc3c(c(N4CCOC[C@@H]4C)n2)CN(C)C3)c(F)c1F` [Example 140, (S)-1-(2,3-difluoro-4-(6-methyl-4-(3-methylmorpholino)-6,7-dihydro-5H-pyrrolo[3,4-d]pyrimidin-2-yl)phenyl)-3-ethylurea], for which the IC50 at mTOR (setting [7]) was 1 to 10 µM; at PI3K delta (PI3 Kd) (setting [8]), > 10 µM; in assay [1] (setting [9]), > 10 µM; on PI3 Kbeta (PI3 Kb) (setting [10]) it was > 10 µM; on PI3 Kgamma (PI3 Kg) (setting [11]) it was > 10 µM. Further, the PI3Ka entry on PI3Kalpha (PI3Ka) is recorded as “D (D >10 μM)”.
Take `CCNC(=O)Nc1cc(F)c(-c2nc3c(c(N4CCOC[C@@H]4C)n2)CN(C(=O)OCC)C3)c(F)c1` [Example 142, (S)-ethyl 2-(4-(3-ethylureido)-2,6-difluorophenyl)-4-(3-methylmorpholino)-5H-pyrrolo[3,4-d]pyrimidine-6(7H)-carboxylate]: the IC50 (at mTOR (setting [7]); at PI3K delta (PI3 Kd) (setting [8]); in assay [1] (setting [9]); on PI3 Kbeta (PI3 Kb) (setting [10]); on PI3 Kgamma (PI3 Kg) (setting [11])) was > 10 µM in each case. Moreover, the PI3Ka result on PI3Kalpha (PI3Ka) was “D (D >10 μM)”.
As to `CC(C)(C)OC(=O)N1Cc2nc(-c3ccc(NC(=O)NC4CC4)cc3F)nc(N3CCOCC3)c2C1` [Example 143, tert-Butyl 2-(4-(3-cyclopropylureido)-2-fluorophenyl)-4-morpholino-5H-pyrrolo[3,4-d]pyrimidine-6(7H)-carboxylate], the IC50 was < 0.1 µM on mTOR (setting [7]); > 10 µM at PI3K delta (PI3 Kd) (setting [8]); > 10 µM in assay [1] (setting [9]); > 10 µM on PI3 Kbeta (PI3 Kb) (setting [10]); > 10 µM on PI3 Kgamma (PI3 Kg) (setting [11]). Besides, the PI3Ka entry at PI3Kalpha (PI3Ka) is given as “D (D >10 μM)”.
In the case of `C[C@H]1COCCN1c1nc(-c2ccc(NC(=O)NC3CC3)cc2F)nc2c1CN(C(=O)OC(C)(C)C)C2` [Example 144, (S)-tert-Butyl 2-(4-(3-cyclopropylureido)-2-fluorophenyl)-4-(3-methylmorpholino)-5H-pyrrolo[3,4-d]pyrimidine-6(7H)-carboxylate], the IC50 on mTOR (setting [7]) is 0.1 to 1 µM; on PI3K delta (PI3 Kd) (setting [8]), > 10 µM; in assay [1] (setting [9]), > 10 µM; on PI3 Kbeta (PI3 Kb) (setting [10]) it was > 10 µM; on PI3 Kgamma (PI3 Kg) (setting [11]) it was > 10 µM. Also, the PI3Ka result on PI3Kalpha (PI3Ka) was “D (D >10 μM)”.
